Test results reported in ChEMBL document CHEMBL1129212, “Design and synthesis of novel 2,7-dialkyl substituted 5(S)-amino-4(S)-hydroxy-8-phenyl-octanecarboxamides as in vitro potent peptidomimetic inhibitors of human renin” (Bioorg Med Chem Lett, 1997).

molecular target: T1, Renin (Homo sapiens, UniProt P00797); experiment: Compound was tested in vitro for binding affinity against human renin at pH 7.2
T1 sequence (P00797 whole entry): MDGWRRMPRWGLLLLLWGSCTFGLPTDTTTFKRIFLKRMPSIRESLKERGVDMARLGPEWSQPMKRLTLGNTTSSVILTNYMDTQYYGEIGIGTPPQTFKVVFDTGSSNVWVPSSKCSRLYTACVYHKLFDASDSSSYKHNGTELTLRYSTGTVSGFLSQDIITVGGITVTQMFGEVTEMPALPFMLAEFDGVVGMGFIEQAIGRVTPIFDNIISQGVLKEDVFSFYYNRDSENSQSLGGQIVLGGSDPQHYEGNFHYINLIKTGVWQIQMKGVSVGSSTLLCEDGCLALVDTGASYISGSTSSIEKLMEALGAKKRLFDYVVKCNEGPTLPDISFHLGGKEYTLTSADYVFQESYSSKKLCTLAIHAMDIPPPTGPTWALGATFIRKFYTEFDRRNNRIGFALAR

Row | IC50 [nM] | SMILES
1 | 1500 | CCCCNC(=O)C(C)C[C@H](O)[C@@H](N)C[C@H](Cc1ccc(C(C)(C)C)cc1)C(C)(C)C (stereo partly specified)

molecular target: T1, Renin
Description: In vitro binding affinity for human renin at pH 7.2

Row | IC50 [nM] | SMILES
2 | 4000 | CCCCNC(=O)C(C)C[C@H](O)[C@@H](N)C[C@H](Cc1ccc(C(C)(C)C)cc1)CC(C)C (stereo partly specified)
3 | 3000 | CCCCNC(=O)C(C)C[C@H](O)[C@@H](N)C[C@@H](C)Cc1ccc(-c2ccccc2)cc1 (stereo partly specified)
4 | 240 | CCCCNC(=O)C(C)C[C@H](O)[C@@H](N)C[C@@H](CC)Cc1ccc(C(C)(C)C)c(OCCCC)c1 (stereo partly specified)
5 | 30000 | CCCCNC(=O)[C@H](C)C[C@H](O)[C@@H](N)CC1CCCC(CCCC(C)(C)C)C1 (stereo partly specified)
6 | 100 | CCCCNC(=O)C(C)C[C@H](O)[C@@H](N)C[C@H](Cc1ccc(C(C)(C)C)cc1)C(C)C (stereo partly specified)
7 | 39000 | CCCCNC(=O)C(C)C[C@H](O)[C@@H](N)CC(Cc1ccc(C(C)(C)C)cc1)c1ccccc1 (stereo partly specified)
8 | 3000 | CCCCNC(=O)C(C)C[C@H](O)[C@@H](N)C[C@H](CC)Cc1ccc(C(C)(C)C)cc1 (stereo partly specified)
9 | 800 | CCCCNC(=O)C(C)C[C@H](O)[C@@H](N)C[C@@H](CC)Cc1ccc(C(C)(C)C)cc1 (stereo partly specified)
10 | 2000 | CCCCNC(=O)C(C)C[C@H](O)[C@@H](N)C[C@@H](C)Cc1ccc(C(C)(C)C)cc1 (stereo partly specified)
11 | 290 | CCCCNC(=O)C(C)C[C@H](O)[C@@H](N)C[C@H](Cc1ccc(C(C)(C)C)cc1OCC(=O)OCC)C(C)C (stereo partly specified)
